{"source": "patent US20040002444A1", "about": "“Polyphosphate-water soluble collagen complexes and process for preparation thereof” (Toshikazu SHIBA, priority 2002, published 2004)", "key": {"[1]": {"tested_on": "alveolar bone of rats (artificial periodontal pockets)", "assay": "Regeneration of the periodontal tissue in rats (Example 3)", "assay_type": "in vivo, Wister male rats", "details": "approx. 0.1 ml injected into gingival crevices everyday, up to 3 weeks; light microscope", "protocol": "Next, to confirm the effect of the prepared polyphosphate-collagen complex in regenerating the periodontal tissue, an experiment for the regeneration of the periodontal tissue was performed using rats. Wister male rats (8 weeks old; 18 rats in total) were anesthetized. Then, using a ½ round bar, approximately 2 mm portions were removed from the buccal alveolar bone crest of the mandibular first and second molars, and artificial periodontal pockets (gingival crevices) were formed. In the treated group (9 rats), approximately 0.1 ml of the polyphosphate-collagen complexes prepared in Example 2 was injected using a syringe into the thus formed gingival crevices. In the comparison group (9 rats), only the collagen was injected. The injection procedure was performed everyday from the day following the operation to prepare the gingival crevice, and continued for 3 weeks at the longest.\nThe rats treated for a certain period were euthanized by inhalation anesthesia (enflurane), and the tissues were fixed by perfusion fixation. Perfusion fixation was performed by letting 300 ml of physiological saline and then 10% neutral buffered formalin solution (pH 7.4, 500 ml) to flow through the blood vessel. […] In addition, the area of the regenerated alveolar bone was measured as the area of bone formation by calculating the sum of the bone areas in the sections with image processing."}, "[2]": {"tested_on": "alveolar bone of rats (artificial periodontal pockets)", "assay": "Regeneration of the periodontal tissue in rats, influence of polyphosphate chain length (Example 4)", "assay_type": "in vivo, Wister male rats", "details": "measured at 15 days after operation; for area of the regenerated alveolar bone: approx. 0.1 ml injected into gingival crevices once a day for 14 days", "protocol": "Next, an experiment of the regeneration of the periodontal tissue in rats was performed using the 3 prepared types of polyphosphate-collagen complexes. In a manner similar to Example 3, Wister male rats (8 weeks old) were anesthetized. Then, using a ½ round bar, approximately 2 mm portions were removed from the buccal alveolar bone crest of the mandibular first and second molars, and artificial periodontal pockets (gingival crevices) were formed. In the treated group, approximately 0.1 ml of either one type of the above polyphosphate-collagen complexes was injected using a syringe into the thus formed gingival crevices. The treated groups were: treated group 1 that was treated with the polyphosphate-collagen complex containing polyphosphates having an average chain length of 15; treated group 2 that was treated with the polyphosphate-collagen complex containing polyphosphates having an average chain length of 35; and treated group 3 that was treated with the polyphosphate-collagen complex containing polyphosphates having an average chain length of 75. The comparison groups were: comparison group 1 that was treated only with collagen and comparison group 2 that was treated with a mixed solution of a sodium phosphate buffer and collagen. Injection (approximately 0.1 ml) into the gingival crevices of each group was performed similarly to that for the treated groups. For all the groups, 3 rats were used per group. In addition, the injection was performed once a day and everyday from the day following the operation to prepare the gingival crevice, and was continued for 14 days.\nAfter the above treatment, at 15 days after the operation to prepare the gingival crevice, tissue sections (samples) were prepared in a manner similar to that in Example 3 from the rats of each group, and then the area of the formed alveolar bone was measured. The areas of the regenerated alveolar bones as measured for rat individuals included in 3 treated groups and 2 comparison groups are as shown in Table 1."}}}
{"substance": "collagen [Comparison group 1]", "values": [{"measurement": "staining of the tissues: regeneration of alveolar bone (FIG. 2)", "setting": "[1]", "result": "no increase was observed in the alveolar bone"}, {"measurement": "area of the regenerated alveolar bone", "setting": "[2]; Individual 1", "result": 0.5422, "unit": "mm^2"}, {"measurement": "area of the regenerated alveolar bone", "setting": "[2]; Individual 2", "result": 0.5909, "unit": "mm^2"}, {"measurement": "area of the regenerated alveolar bone", "setting": "[2]; Individual 3", "result": 0.6569, "unit": "mm^2"}, {"measurement": "area of the regenerated alveolar bone, Average", "setting": "[2]; average of 3 rats per group, approx. 0.1 ml injected once a day for 14 days", "result": 0.5967, "unit": "mm^2"}]}
